{"source": "patent US20220259180A1", "about": "“BROAD SPECTRUM ANTIVIRAL COMPOUNDS TARGETING THE SKI COMPLEX” (priority 2019, published 2022)", "key": {"[1]": {"tested_on": "Influenza virus", "format": "cell-based, influenza A virus NL09 strain", "details": "for first experiment PFU/ml: 0.1% DMSO control 100000; for Antiviral activity against Influenza virus / Flu titer (pfu/ml): A549 cells; for Antiviral activity against Influenza virus: screening at 50 μM, 10 μM (and 1 μM); for IC50: read-out: IC50 against IAV; for Flu titer (pfu/ml): plaque assay"}, "[2]": {"tested_on": "SARS-CoV-2 mRNA", "format": "cell-based", "details": "two gene targets (N, RdRp)"}, "[3]": {"tested_on": "IAV RNA", "experiment": "Multi-segment RT-PCR (M-RTPCR) of all IAV segments", "format": "cell-based, influenza A virus"}, "[4]": {"tested_on": "MERS-CoV", "format": "cell-based, MERS-CoV (Jordan strain)", "details": "Huh7 cells, MOI 0.1, 24 h; read-out: IC50 against MERS-CoV"}, "[5]": {"tested_on": "IAV NS1", "format": "cell-based, influenza A virus"}, "[6]": {"tested_on": "SARS-CoV", "format": "cell-based", "details": "24 h"}, "[7]": {"tested_on": "SARS-CoV-2", "format": "cell-based"}, "[8]": {"tested_on": "IAV NS1 mRNA", "format": "cell-based, influenza A virus"}, "[9]": {"tested_on": "IAV", "experiment": "Time of addition assay, IAV in A549 cells, plaque assay", "format": "cell-based, influenza A virus"}, "[10]": {"tested_on": "A549 cells", "details": "24 h, CellTiter-Glo"}, "[11]": {"tested_on": "Ebola virus Makona strain (EBOV)", "format": "cell-based", "details": "Huh7 cells, 48 h; read-out: IC50 against EBOV"}, "[12]": {"tested_on": "Marburg virus Angola strain (MARV)", "format": "cell-based", "details": "Huh7 cells, 48 h; read-out: IC50 against MARV"}, "[13]": {"tested_on": "Huh7 cells", "details": "24 h, CellTiter-Glo"}, "[14]": {"details": "10 μM compound, DMSO (0.1%) control 153000"}, "[15]": {"details": "50 μM compound, DMSO (0.5%) control 58700"}, "[16]": {"details": "1 μm compound, DMSO (0.1%) control 153000"}}, "note": "Entries after “also recorded” stand apart in the source; their conditions may differ. Where two headings read alike, the source gives them in different places.", "data": [{"compound": "COc1ccc(CNC2CCCC2)c(OCC(O)CN2CCN(C)CC2)c1", "note": "(centres unmarked) [18-1]", "values": [{"measurement": "first experiment PFU/ml", "setting": "[1]; 10 μM screen", "value": 60000, "unit": "PFU/ml"}]}, {"compound": "COc1ccc(CNCCc2ccccc2C)c(OCC(O)CN2CCN(C)CC2)c1", "note": "(centres unmarked) [18-2]", "values": [{"measurement": "first experiment PFU/ml", "setting": "[1]; 10 μM screen", "value": 500, "unit": "PFU/ml"}, {"measurement": "Antiviral activity against Influenza virus", "setting": "[1]; listed as 27092311", "value": "increased activity"}]}, {"compound": "COc1ccc(CNC2Cc3ccccc3C2)c(OCC(O)CN2CCN(C)CC2)c1", "note": "(centres unmarked) [18-3]", "values": [{"measurement": "first experiment PFU/ml", "setting": "[1]; 10 μM screen", "value": 12000, "unit": "PFU/ml"}]}, {"compound": "COc1ccc(CNCCc2ccccc2Cl)c(OCC(O)CN2CCN(C)CC2)c1", "note": "(centres unmarked) [18-4]", "values": [{"measurement": "first experiment PFU/ml", "setting": "[1]; 10 μM screen", "value": 7000, "unit": "PFU/ml"}]}, {"compound": "COc1ccc(CNCC2CCCCC2)c(OCC(O)CN2CCN(C)CC2)c1", "note": "(centres unmarked) [18-5]", "values": [{"measurement": "first experiment PFU/ml", "setting": "[1]; 10 μM screen", "value": 60000, "unit": "PFU/ml"}]}, {"compound": "COc1ccc(CNCCc2ccccc2)c(OCC(O)CN2CCN(C)CC2)c1", "note": "(centres unmarked) [18-6]", "values": [{"measurement": "first experiment PFU/ml", "setting": "[1]; 10 μM screen", "value": 10000, "unit": "PFU/ml"}]}, {"compound": "COc1ccc(CNCCCn2ccnc2C)c(OCC(O)CN2CCN(C)CC2)c1", "note": "(centres unmarked) [18-7]", "values": [{"measurement": "first experiment PFU/ml", "setting": "[1]; 10 μM screen", "value": 240000, "unit": "PFU/ml"}]}, {"compound": "COc1ccc(CNC2CCCCCCC2)c(OCC(O)CN2CCN(C)CC2)c1", "note": "(centres unmarked) [18-8]", "values": [{"measurement": "first experiment PFU/ml", "setting": "[1]; 10 μM screen", "value": 3000, "unit": "PFU/ml"}]}, {"compound": "COc1ccc(CNCCc2cccnc2)c(OCC(O)CN2CCCCCCC2)c1", "note": "(centres unmarked) [18-9]", "values": [{"measurement": "first experiment PFU/ml", "setting": "[1]; 10 μM screen", "value": 200000, "unit": "PFU/ml"}]}, {"compound": "COc1ccc(CNC2CCCCC2)c(OCC(O)CN2CCN(C)CC2)c1", "note": "(centres unmarked) [18-10]", "values": [{"measurement": "first experiment PFU/ml", "setting": "[1]; 10 μM screen", "value": 40000, "unit": "PFU/ml"}]}, {"compound": "COCCCNCc1ccc(OC)cc1OCC(O)CN1CCN(C)CC1", "note": "(centres unmarked) [18-11]", "values": [{"measurement": "first experiment PFU/ml", "setting": "[1]; 10 μM screen", "value": 100000, "unit": "PFU/ml"}]}, {"compound": "COc1ccc(CNCC(F)(F)F)c(OCC(O)CN2CCN(C)CC2)c1", "note": "(centres unmarked) [18-12]", "values": [{"measurement": "first experiment PFU/ml", "setting": "[1]; 10 μM screen", "value": 30000, "unit": "PFU/ml"}]}, {"compound": "COc1ccc(CNCCCn2cccn2)c(OCC(O)CN2CCN(C)CC2)c1", "note": "(centres unmarked) [18-13]", "values": [{"measurement": "first experiment PFU/ml", "setting": "[1]; 10 μM screen", "value": 40000, "unit": "PFU/ml"}]}, {"compound": "COc1ccc(CNCCCSC)c(OCC(O)CN2CCCCCCC2)c1", "note": "(centres unmarked) [18-14]", "values": [{"measurement": "first experiment PFU/ml", "setting": "[1]; 10 μM screen", "value": 44000, "unit": "PFU/ml"}]}, {"compound": "COc1ccc(CNCCCn2ccnc2)c(OCC(O)CN2CCN(C)CC2)c1", "note": "(centres unmarked) [18-15]", "values": [{"measurement": "Influenza virus plaque assay titer, 10 μM", "setting": "[1]; compound at 10 μM, DMSO control 100000", "value": 36000, "unit": "PFU/virus/ml"}]}, {"compound": "COc1ccc(CNCCCSC)c(OCC(O)CN2CCN(C)CC2)c1", "note": "(centres unmarked) [18-16]", "values": [{"measurement": "first experiment PFU/ml", "setting": "[1]; 10 μM screen", "value": 210000, "unit": "PFU/ml"}]}, {"compound": "COc1ccc(CNCCc2ccccc2F)c(OCC(O)CN2CCN(C)CC2)c1", "note": "(centres unmarked) [18-lead, 1-[2-({[2-(2-fluorophenyl)ethyl]amino}methyl)-5-methoxyphenoxy]-3-(4-methyl-1-piperazinyl)-2-propanol]", "values": [{"measurement": "first experiment PFU/ml", "setting": "[1]; 10 μM screen", "value": 2000, "unit": "PFU/ml"}, {"measurement": "1-24-20 (triplicate wells) PFU/ml", "setting": "[1]; 10 μM screen, well 1, 0.1% DMSO control 23000", "value": 1300, "unit": "PFU/ml"}, {"measurement": "1-24-20 (triplicate wells) PFU/ml", "setting": "[1]; 10 μM screen, well 2, 0.1% DMSO control 19000", "value": 1000, "unit": "PFU/ml"}, {"measurement": "1-24-20 (triplicate wells) PFU/ml", "setting": "[1]; 10 μM screen, well 3, 0.1% DMSO control 29000", "value": 4000, "unit": "PFU/ml"}, {"measurement": "1-24-20 (triplicate wells) PFU/ml", "setting": "[1]; 50 μM screen, well 1, 0.5% DMSO control 21000", "value": 600, "unit": "PFU/ml"}, {"measurement": "1-24-20 (triplicate wells) PFU/ml", "setting": "[1]; 50 μM screen, well 2, 0.5% DMSO control 5300", "value": 200, "unit": "PFU/ml"}, {"measurement": "1-24-20 (triplicate wells) PFU/ml", "setting": "[1]; 50 μM screen, well 3, 0.5% DMSO control 15000", "value": 300, "unit": "PFU/ml"}]}, {"compound": "COc1ccc(CNCCc2ccccc2C)c(OCC(O)CN2CCN(C)CC2)c1", "note": "(centres unmarked) [UMB18-2]", "values": [{"measurement": "SARS-CoV-2 mRNA production", "setting": "[2]", "value": "capable of inhibiting SARS-CoV-2 mRNA production"}, {"measurement": "IAV RNA amplified by M-RTPCR", "setting": "[3]", "value": "total loss of IAV RNA"}, {"measurement": "IC50", "setting": "[4]", "value": "~5", "unit": "µM"}, {"measurement": "IC50", "setting": "[1]", "value": "~5", "unit": "µM"}, {"measurement": "NS1 protein", "setting": "[5]", "value": "lack of NS1 protein"}, {"measurement": "Inhibition of SARS-CoV virus production", "setting": "[6]; 10 μM", "value": "inhibition, but to a lesser extent"}, {"measurement": "Reduction in SARS-CoV virus production", "setting": "[6]; 50 μM", "value": 1, "unit": "log"}, {"measurement": "Inhibition of SARS-CoV-2 virus production (TCID50)", "setting": "[7]", "value": "capable of inhibiting virus production; also recorded: less so"}, {"measurement": "NS1 mRNA", "setting": "[8]", "value": "marked reduction in mRNA"}, {"measurement": "Inhibition of IAV, drug added 2 h after infection (+2 h)", "setting": "[9]", "value": "marked reduction in the level of inhibition"}]}, {"compound": "COc1ccc(CNCCc2ccccc2F)c(OCC(O)CN2CCN(C)CC2)c1", "note": "(centres unmarked) [UMB18]", "values": [{"measurement": "Cell cytotoxicity at antiviral concentrations", "setting": "[10]", "value": "minimal toxicity"}, {"measurement": "IC50", "setting": "[4]", "value": "~5", "unit": "µM"}, {"measurement": "IC50", "setting": "[11]", "value": "~5", "unit": "µM"}, {"measurement": "IC50", "setting": "[12]", "value": "~16", "unit": "µM"}, {"measurement": "Antiviral activity against Influenza virus", "setting": "[1]", "value": "antiviral activity against influenza"}, {"measurement": "IC50", "setting": "[1]", "value": "~5", "unit": "µM"}, {"measurement": "Cell cytotoxicity at antiviral concentrations", "setting": "[13]", "value": "minimal toxicity"}, {"measurement": "NS1 protein", "setting": "[5]", "value": "lack of NS1 protein"}, {"measurement": "NS1 mRNA", "setting": "[8]", "value": "marked reduction in mRNA"}, {"measurement": "Inhibition of IAV, drug added 2 h after infection (+2 h)", "setting": "[9]", "value": "marked reduction in the level of inhibition"}]}, {"compound": "COc1ccc(OC)c(Cc2nnc(CCC(=O)NC3CC(C)(C)CC(C)(C)C3)o2)c1", "note": "[compound 35434810, 3-4[5-(2,5-dimethoxybenzyl)-1,3,4-oxadiazol-2-yl]-N-(3,3,5,5-tetramethylcyclohexyl)propanamide]", "values": [{"measurement": "Flu titer (pfu/ml)", "setting": "[1]; [14]", "value": 80000, "unit": "pfu/ml"}, {"measurement": "Flu titer (pfu/ml)", "setting": "[1]; [15]", "value": 130000, "unit": "pfu/ml"}, {"measurement": "Flu titer (pfu/ml)", "setting": "[1]; [16]", "value": 80000, "unit": "pfu/ml"}]}, {"compound": "OCCN(Cc1nc(Cc2cccc(C(F)(F)F)c2)no1)CC12CC3CC(CC(C3)C1)C2", "note": "[compound 61121342]", "values": [{"measurement": "Flu titer (pfu/ml)", "setting": "[1]; [14]", "value": 130000, "unit": "pfu/ml"}, {"measurement": "Flu titer (pfu/ml)", "setting": "[1]; [15]", "value": 50000, "unit": "pfu/ml"}, {"measurement": "Flu titer (pfu/ml)", "setting": "[1]; [16]", "value": 9000, "unit": "pfu/ml"}]}]}
